Tested on: Metabolism protein genes
Assay: DNA chip mRNA expression in yeast, metabolism protein genes (Table 7)
Assay type: cell-based, Saccharomyces cerevisiae S288C
Outline: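 In this screen, yeast in logarithmic growth are challenged for two hours with a toxic substance at a non-lethal inhibitory concentration. Their mRNA, converted to Cy3- or Cy5-labeled cDNA, hybridizes at 65° C. to a chip spanning every yeast gene, and expression is expressed as a ratio to untreated cells.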

[Cl][Hg][Cl] [(3), HgCl2]
The level of expressed mRNA in the presence of chemical substance/The level of expressed mRNA in the absence of chemical substance (yeast gene YAL012W): 10.4 | The level of expressed mRNA in the presence of chemical substance/The level of expressed mRNA in the absence of chemical substance (yeast gene YAL038W): 3.0 | level of expressed mRNA in the presence/in the absence of chemical substance (yeast gene YBR003W): 1.0 | level of expressed mRNA in the presence/in the absence of chemical substance (yeast gene YBR011C): 2.5 | level of expressed mRNA in the presence/in the absence of chemical substance (yeast gene YBR020W): 1.9 | The level of expressed mRNA in the presence of chemical substance/The level of expressed mRNA in the absence of chemical substance (yeast gene YBR023C): 1.3 | The level of expressed mRNA in the presence of chemical substance/The level of expressed mRNA in the absence of chemical substance (yeast gene YBR029C): 1.8 | The level of expressed mRNA in the presence of chemical substance/The level of expressed mRNA in the absence of chemical substance (yeast gene YBR183W): 2.0 | The level of expressed mRNA in the presence of chemical substance/The level of expressed mRNA in the absence of chemical substance (yeast gene YBR222C): 1.3 | The level of expressed mRNA in the presence of chemical substance/The level of expressed mRNA in the absence of chemical substance (yeast gene YBR256C): 0.6 | The level of expressed mRNA in the presence of chemical substance/The level of expressed mRNA in the absence of chemical substance (yeast gene YCL009C): 2.0 | The level of expressed mRNA in the presence of chemical substance/The level of expressed mRNA in the absence of chemical substance (yeast gene YCL064C): 0.8 | level of expressed mRNA in the presence/in the absence of chemical substance (yeast gene YCR010C): 1.6 | level of expressed mRNA in the presence/in the absence of chemical substance (yeast gene YCR034W): 2.5 | The level of expressed mRNA in the presence of chemical substance/The level of expressed mRNA in the absence of chemical substance (yeast gene YCR048W): 1.0 | The level of expressed mRNA in the presence of chemical substance/The level of expressed mRNA in the absence of chemical substance (yeast gene YCR098C): 1.7 | The level of expressed mRNA in the presence of chemical substance/The level of expressed mRNA in the absence of chemical substance (yeast gene YDR019C): 1.7 | level of expressed mRNA in the presence/in the absence of chemical substance (yeast gene YDR050C): 2.3 | level of expressed mRNA in the presence/in the absence of chemical substance (yeast gene YDR073W): 0.7 | level of expressed mRNA in the presence/in the absence of chemical substance (yeast gene YDR123C): 0.4 | level of expressed mRNA in the presence/in the absence of chemical substance (yeast gene YDR178W): 3.4 | level of expressed mRNA in the presence/in the absence of chemical substance (yeast gene YDR277C): 1.0 | level of expressed mRNA in the presence/in the absence of chemical substance (yeast gene YDR284C): 3.0 | level of expressed mRNA in the presence/in the absence of chemical substance (yeast gene YDR345C): 5.6 | The level of expressed mRNA in the presence of chemical substance/The level of expressed mRNA in the absence of chemical substance (yeast gene YDR380W): 0.8 | level of expressed mRNA in the presence/in the absence of chemical substance (yeast gene YDR400W): 2.2 | level of expressed mRNA in the presence/in the absence of chemical substance (yeast gene YDR408C): 1.4 | level of expressed mRNA in the presence/in the absence of chemical substance (yeast gene YDR483W): 1.3 | The level of expressed mRNA in the presence of chemical substance/The level of expressed mRNA in the absence of chemical substance (yeast gene YDR497C): 0.6 | The level of expressed mRNA in the presence of chemical substance/The level of expressed mRNA in the absence of chemical substance (yeast gene YDR502C): 2.4 | The level of expressed mRNA in the presence of chemical substance/The level of expressed mRNA in the absence of chemical substance (yeast gene YDR516C): 7.8 | level of expressed mRNA in the presence/in the absence of chemical substance (yeast gene YEL063C): 2.4 | level of expressed mRNA in the presence/in the absence of chemical substance (yeast gene YER015W): 1.1 | The level of expressed mRNA in the presence of chemical substance/The level of expressed mRNA in the absence of chemical substance (yeast gene YER026C): 3.3 | The level of expressed mRNA in the presence of chemical substance/The level of expressed mRNA in the absence of chemical substance (yeast gene YER053C): 1.9 | The level of expressed mRNA in the presence of chemical substance/The level of expressed mRNA in the absence of chemical substance (yeast gene YER069W): 3.3 | level of expressed mRNA in the presence/in the absence of chemical substance (yeast gene YER081W): 2.7 | The level of expressed mRNA in the presence of chemical substance/The level of expressed mRNA in the absence of chemical substance (yeast gene YER096W): 2.0 | level of expressed mRNA in the presence/in the absence of chemical substance (yeast gene YER120W): 2.5 | The level of expressed mRNA in the presence of chemical substance/The level of expressed mRNA in the absence of chemical substance (yeast gene YER178W): 3.6 | level of expressed mRNA in the presence/in the absence of chemical substance (yeast gene YFL011W): 3.7 | The level of expressed mRNA in the presence of chemical substance/The level of expressed mRNA in the absence of chemical substance (yeast gene YFL014W): 5.7 | The level of expressed mRNA in the presence of chemical substance/The level of expressed mRNA in the absence of chemical substance (yeast gene YFL030W): 3.1 | The level of expressed mRNA in the presence of chemical substance/The level of expressed mRNA in the absence of chemical substance (yeast gene YFL031W): 2.1 | The level of expressed mRNA in the presence of chemical substance/The level of expressed mRNA in the absence of chemical substance (yeast gene YFL056C): 2.3 | The level of expressed mRNA in the presence of chemical substance/The level of expressed mRNA in the absence of chemical substance (yeast gene YFL057C): 1.5 | The level of expressed mRNA in the presence of chemical substance/The level of expressed mRNA in the absence of chemical substance (yeast gene YFR047C): 2.7 | level of expressed mRNA in the presence/in the absence of chemical substance (yeast gene YGL012W): 3.0 | The level of expressed mRNA in the presence of chemical substance/The level of expressed mRNA in the absence of chemical substance (yeast gene YGL022W): 1.4 | level of expressed mRNA in the presence/in the absence of chemical substance (yeast gene YGL115W): 1.2 | The level of expressed mRNA in the presence of chemical substance/The level of expressed mRNA in the absence of chemical substance (yeast gene YGL126W): 1.4 | level of expressed mRNA in the presence/in the absence of chemical substance (yeast gene YGL205W): 0.7 | The level of expressed mRNA in the presence of chemical substance/The level of expressed mRNA in the absence of chemical substance (yeast gene YGL209W): 1.1 | The level of expressed mRNA in the presence of chemical substance/The level of expressed mRNA in the absence of chemical substance (yeast gene YGL248W): 0.9 | The level of expressed mRNA in the presence of chemical substance/The level of expressed mRNA in the absence of chemical substance (yeast gene YGR037C): 2.2 | The level of expressed mRNA in the presence of chemical substance/The level of expressed mRNA in the absence of chemical substance (yeast gene YGR055W): 12.0 | level of expressed mRNA in the presence/in the absence of chemical substance (yeast gene YGR096W): 1.1 | level of expressed mRNA in the presence/in the absence of chemical substance (yeast gene YGR191W): 1.6 | The level of expressed mRNA in the presence of chemical substance/The level of expressed mRNA in the absence of chemical substance (yeast gene YGR194C): 1.3 | level of expressed mRNA in the presence/in the absence of chemical substance (yeast gene YGR204W): 2.7 | The level of expressed mRNA in the presence of chemical substance/The level of expressed mRNA in the absence of chemical substance (yeast gene YGR256W): 2.3 | The level of expressed mRNA in the presence of chemical substance/The level of expressed mRNA in the absence of chemical substance (yeast gene YGR282C): 4.6 | level of expressed mRNA in the presence/in the absence of chemical substance (yeast gene YGR288W): 1.0 | level of expressed mRNA in the presence/in the absence of chemical substance (yeast gene YHR025W): 2.4 | The level of expressed mRNA in the presence of chemical substance/The level of expressed mRNA in the absence of chemical substance (yeast gene YHR111W): 0.8 | level of expressed mRNA in the presence/in the absence of chemical substance (yeast gene YHR123W): 1.8 | The level of expressed mRNA in the presence of chemical substance/The level of expressed mRNA in the absence of chemical substance (yeast gene YHR137W): 2.4 | The level of expressed mRNA in the presence of chemical substance/The level of expressed mRNA in the absence of chemical substance (yeast gene YHR174W): 3.3 | The level of expressed mRNA in the presence of chemical substance/The level of expressed mRNA in the absence of chemical substance (yeast gene YHR176W): 1.1 | level of expressed mRNA in the presence/in the absence of chemical substance (yeast gene YHR210C): 0.6 | level of expressed mRNA in the presence/in the absence of chemical substance (yeast gene YIL006W): 1.4 | The level of expressed mRNA in the presence of chemical substance/The level of expressed mRNA in the absence of chemical substance (yeast gene YIL045W): 1.9 | The level of expressed mRNA in the presence of chemical substance/The level of expressed mRNA in the absence of chemical substance (yeast gene YIL107C): 1.1 | The level of expressed mRNA in the presence of chemical substance/The level of expressed mRNA in the absence of chemical substance (yeast gene YIL154C): 1.9 | The level of expressed mRNA in the presence of chemical substance/The level of expressed mRNA in the absence of chemical substance (yeast gene YIL155C): 1.4 | The level of expressed mRNA in the presence of chemical substance/The level of expressed mRNA in the absence of chemical substance (yeast gene YIR034C): 2.5 | The level of expressed mRNA in the presence of chemical substance/The level of expressed mRNA in the absence of chemical substance (yeast gene YIR036C): 2.6 | The level of expressed mRNA in the presence of chemical substance/The level of expressed mRNA in the absence of chemical substance (yeast gene YJL031C): 0.5 | The level of expressed mRNA in the presence of chemical substance/The level of expressed mRNA in the absence of chemical substance (yeast gene YJL068C): 3.4 | The level of expressed mRNA in the presence of chemical substance/The level of expressed mRNA in the absence of chemical substance (yeast gene YJL088W): 2.2 | The level of expressed mRNA in the presence of chemical substance/The level of expressed mRNA in the absence of chemical substance (yeast gene YJL099W): 0.3 | level of expressed mRNA in the presence/in the absence of chemical substance (yeast gene YJL121C): 1.9 | level of expressed mRNA in the presence/in the absence of chemical substance (yeast gene YJL167W): 1.4 | The level of expressed mRNA in the presence of chemical substance/The level of expressed mRNA in the absence of chemical substance (yeast gene YJL172W): 1.8 | level of expressed mRNA in the presence/in the absence of chemical substance (yeast gene YJL216C): 2.2 | The level of expressed mRNA in the presence of chemical substance/The level of expressed mRNA in the absence of chemical substance (yeast gene YJL219W): 3.1 | level of expressed mRNA in the presence/in the absence of chemical substance (yeast gene YJR077C): 2.0 | The level of expressed mRNA in the presence of chemical substance/The level of expressed mRNA in the absence of chemical substance (yeast gene YJR137C): 4.6 | level of expressed mRNA in the presence/in the absence of chemical substance (yeast gene YJR143C): 2.1 | The level of expressed mRNA in the presence of chemical substance/The level of expressed mRNA in the absence of chemical substance (yeast gene YJR148W): 2.0
